According to patent publication US12404285B2, “KRAS G12D proteolysis targeting chimeras” (PAQ Therapeutics Inc., priority 2022, dated 2025):

Molecular target: T1, KRAS (G12D)-HiBit in AsPc-1-KRAS (G12D)-HiBit-KI cell (Homo sapiens, UniProt P01116, G12D)
T1 construct: host or cells: AsPc-1-KRAS (G12D)-HiBit-KI cells (knock-in line)
Assay: G12D HiBit assay
Assay type: cell-based
Settings: 24 hours compound treatment, absolute DC50, read-out: Average PHA DC50
Outline: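 Degradation of endogenous HiBiT-tagged KRAS G12D in AsPc-1 knock-in cells read after 24 h compound exposure (0.015-300 nM, 3-fold steps) by Nano-Glo HiBiT lytic luminescence. Signal normalised to DMSO-only cells; absolute DC50 derived by curve fitting.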

T1 sequence (P01116 1-188 isoform P01116-2 G12D): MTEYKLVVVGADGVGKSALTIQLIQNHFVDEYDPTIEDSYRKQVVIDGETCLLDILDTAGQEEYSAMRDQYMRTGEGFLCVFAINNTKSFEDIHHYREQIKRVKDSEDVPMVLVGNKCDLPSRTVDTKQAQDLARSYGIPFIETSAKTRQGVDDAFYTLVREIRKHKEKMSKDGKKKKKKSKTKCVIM

DC50 | SMILES
< 100 nM | C#Cc1c(F)ccc2cccc(-c3ncc4c(N5CC6CCC(C5)N6)nc(OC[C@@]56CCCN5[C@H](COC(=O)N5CCC(CCN7CCN(Cc8cccc9c8n(C)c(=O)n9C8CCC(=O)NC8=O)CC7)CC5)CC6)nc4c3F)c12 (stereo partly drawn) [Compound 84, [(3S,8S)-8-[[4-(3,8-Diazabicyclo[3.2.1]octan-3-yl)-7-(8-ethynyl-7-fluoro-1-naphthyl)-8-fluoro-pyrido[4,3-d]pyrimidin-2-yl]oxymethyl]-1,2,3,5,6,7-hexahydropyrrolizin-3-yl]methyl4-[2-[4-[[1-(2,6-dioxo-3-piperidyl)-3-methyl-2-oxo-benzimidazol-4-yl]methyl]piperazin-1-yl]ethyl]piperidine-1-carboxylate]
< 100 nM | C#Cc1c(F)ccc2cccc(-c3ncc4c(N5CC6CCC(C5)N6)nc(OC[C@@]56CCCN5[C@H](COC(=O)N5CCN(CCC7CCN(Cc8cccc9c8n(C)c(=O)n9C8CCC(=O)NC8=O)CC7)CC5)CC6)nc4c3F)c12 (stereo partly drawn) [Compound 85, [(3S,8S)-8-[[4-(3,8-Diazabicyclo[3.2.1]octan-3-yl)-7-(8-ethynyl-7-fluoro-1-naphthyl)-8-fluoro-pyrido[4,3-d]pyrimidin-2-yl]oxymethyl]-1,2,3,5,6,7-hexahydropyrrolizin-3-yl]methyl4-[2-[1-[[1-(2,6-dioxo-3-piperidyl)-3-methyl-2-oxo-benzimidazol-4-yl]methyl]-4-piperidyl]ethyl]piperazine-1-carboxylate]
< 100 nM | C#Cc1c(F)ccc2cccc(-c3ncc4c(N5CC6CCC(C5)N6)nc(OC[C@@]56CCCN5[C@H](COC(=O)N5CCC(CCN7CCN(Cc8ccc9c(c8)n(C)c(=O)n9C8CCC(=O)NC8=O)CC7)CC5)CC6)nc4c3F)c12 (stereo partly drawn) [Compound 87, [(3S,8S)-8-[[4-(3,8-Diazabicyclo[3.2.1]octan-3-yl)-7-(8-ethynyl-7-fluoro-1-naphthyl)-8-fluoro-pyrido[4,3-d]pyrimidin-2-yl]oxymethyl]-1,2,3,5,6,7-hexahydropyrrolizin-3-yl]methyl 4-[2-[4-[[1-(2,6-dioxo-3-piperidyl)-3-methyl-2-oxo-benzimidazol-5-yl]methyl]piperazin-1-yl]ethyl]piperidine-1-carboxylate]

Continued, compound first:

SMILES | DC50
C#Cc1c(F)ccc2cc(O)cc(-c3ncc4c(N5CC6CCC(C5)N6)nc(OC[C@@]56CCCN5[C@H](COC(=O)N5CCC(CN7CCC(c8ccc9c(c8)n(C)c(=O)n9C8CCC(=O)NC8=O)CC7)CC5)CC6)nc4c3F)c12 (stereo partly drawn) [Compound 82, [(3S,8S)-8-[[4-(3,8-Diazabicyclo[3.2.1]octan-3-yl)-7-(8-ethynyl-7-fluoro-3-hydroxy-1-naphthyl)-8-fluoro-pyrido[4,3-d]pyrimidin-2-yl]oxymethyl]-1,2,3,5,6,7-hexahydropyrrolizin-3-yl]methyl 4-[[4-[1-(2,6-dioxo-3-piperidyl)-3-methyl-2-oxo-benzimidazol-5-yl]-1-piperidyl]methyl] piperidine-1-carboxylate] | < 100 nM
C#Cc1c(F)ccc2cccc(-c3ncc4c(N5CC6CCC(C5)N6)nc(OC[C@@]56CCCN5[C@H](COC(=O)N5CC(OC7CCN(Cc8cccc9c8n(C)c(=O)n9C8CCC(=O)NC8=O)CC7)C5)CC6)nc4c3F)c12 (stereo partly drawn) [Compound 83, [(3S,8S)-8-[[4-(3,8-Diazabicyclo[3.2.1]octan-3-yl)-7-(8-ethynyl-7-fluoro-1-naphthyl)-8-fluoro-pyrido[4,3-d]pyrimidin-2-yl]oxymethyl]-1,2,3,5,6,7-hexahydropyrrolizin-3-yl]methyl3-[[1-[[1-(2,6-dioxo-3-piperidyl)-3-methyl2-oxo-benzimidazol-4-yl]methyl]-4-piperidyl]oxy]azetidine-1-carboxylate] | < 100 nM
